Data published in patent US20190307754A1, “PDE9 INHIBITORS FOR TREATMENT OF PERIPHERAL DISEASES” (IMARA, INC., priority 2016, published 2019).

How the values were obtained:
C57Bl/6J mice = experiment: Locomotor activity and contextual fear conditioning in C57Bl/6J mice; assay type: in vivo; details: gavage, 5 days
Protocol: The exposure of both compounds was also evaluated in the plasma, brain, and eye. […] During the treatment period all animals were assessed for contextual fear conditioning and a subset of 7 animals per group was evaluated for locomotor activity. On Day 5, plasma, brain, and eye tissue were collected 30 minutes after dosing from 3 animals per treated group to measure concentrations of test item.

PDE1 = PDE1 inhibition assay; assay type: biochemical
Protocol: Reactions were initiated by addition of the cyclic nucleotide substrate, and reactions were allowed to proceed for 1 h at room temperature before being terminated through mixing with 20 μL (0.2 mg) yttrium silicate SPA beads (PerkinElmer).

[1] = tested on: TNF-α activated human endothelial cells; experiment: Micro-channel PMN adhesion assay under flow (FIG. 9); assay type: cell-based
Source text: In this study, the effects of Compound P3.1 on PMN adhesion to TNF-α activated human endothelial cell monolayers under flow conditions are investigated. It has been validated in vitro dynamic assay mimics neutrophil recruitment to endothelial cell monolayers under inflammatory conditions (TNF-α activation). In this assay, both control and sickle PMNs adhere to endothelial cells but to different degrees, reflecting in vivo conditions. The human dermal microvascular endothelial cell line HMEC-1 is used in this approach. The potential inhibitory effect of Compound P3.1 is tested in parallel and compared with the effect of HU and other PDE9 inhibitors.
In a first step, the effects of 1 uM Compound P3.1 and 10 uM HU were tested by incubating blood samples from healthy volunteers (n=3-6) (i.e., donors or donor cells) with these molecules.
Adhesion of PMNs from healthy volunteers was assessed under flow conditions, mimicking blood flow, in micro channels (Venaflux, Cellix, Ireland) coated with endothelial cell monolayers cultivated under inflammatory conditions. The adhesion assay was performed with whole fresh blood, previously incubated or not with Compound P3.1, to be closer to the physiological condition of circulation in a person, and to study the interaction between the different blood cells with PMNs.

[2] = tested on: K562 erythroleukemic cells; experiment: HbF in cultured K562 cells; assay type: cell-based; details: 3 days
Protocol: K562 cells were cultured at 37° C. in IMDM® to which the required concentrations of test items or DMSO (negative control) had been added. Plated cells were maintained at 37° C. for 3 days at the end of which the presence of HbF within cells was detected by flow cytometry.

[3] = tested on: K562 erythroleukemic cells; experiment: cGMP in cultured K562 cells; assay type: cell-based; details: 16 hours
Protocol: Hydroxyurea was included as a comparator as it is currently the only FDA approved treatment for this disease (Charache et al., N Engl J Med., 332(20):1317-22. (1995)). One of the proposed mechanisms of action of HU in SCD is that it may generate NO and modulation of intracellular levels of the NO second messenger, cGMP, may represent an effective and cell-specific approach for amplifying intracellular NO-dependent signaling.
K562 cells were cultured at 37° C. in IMDM® to which the required concentrations of test items or dimethyl sulfoxide (DMSO; negative Control) had been added. Plated cells were maintained at 37° C. for 16 hours at the end of which the amount of cGMP was detected by enzyme immunoassay.

[4] = tested on: TNF-α activated endothelium; experiment: Micro-channel assay of platelet, PMN and RBC binding (FIG. 10); assay type: cell-based, human; details: Compound P3.1 2 or 3 hours, HU 3 hours; bound cells at 30 min
Protocol: In another assay, using the same method, the reduction of PMN and RBC bindings to TNF-α activated endothelium in a micro channel well was confirmed. Platelet, PMN, and RBC in blood samples from 5 healthy normal volunteers (donors) were labelled with fluorescent dyes. The blood samples were incubated with Compound P3.1 for 2 hours or 3 hours, or HU for 3 hours, prior to running them on micro channels that were previously coated with endothelial cells activated with TNF-α. The % of bound cells was quantified at 30 min. Results are shown in FIG. 10A, FIG. 10B, and FIG. 10C.

HbSS-Townes mice = experiment: Microvascular stasis and hematology in HbSS-Townes mice; assay type: in vivo
Protocol: The ability of Compound P3.1 to reduce vaso-occulsion was assessed in HbSS-Townes transgenic sickle mice after transient hypoxia and re-oxygenation. This study assessed the effects of repeated (10 days) oral dosing of Compound P3.1 and HU on microvascular stasis and other hematological markers of sickle cell disease, after transient hypoxia and re-oxygenation, in Townes transgenic sickle mice, a mouse model of sickle cell disease (Hba^tm1(HBA)Tow Hbb^tm2(HBG1,HBB*)Tow/Hbb^tm3(HBG1,HBB)Tow/J). HbSS-Townes mice were divided into groups of 3 mice and were then dosed orally via drinking water with Compound P3.1 at 10 mg/kg/day, Compound P3.1 at 30 mg/kg/day, HU (100 mg/kg/day), or a combination of Compound P3.1 and HU (at doses of 30 and 100 mg/kg/day, respectively) for 10 days. A final group received water containing 0.08% methylcellulose, the vehicle used to prepare the test items, and served as controls. On Day 7 of treatment, the mice were implanted with dorsal skin-fold chambers (DSFC), and on Day 10 of treatment, 20-23 flowing subcutaneous venules in the DSFC window were selected and mapped. After venule selection and mapping, mice were placed in a chamber and exposed to a hypoxic atmosphere (7% O2/93% N2) for 1 hour, after which they were returned to room air. All of the selected venules were re-examined after 1 and 4 hours of re-oxygenation in room air and the number of static (no flow) venules was counted and expressed as percent stasis. On completion of these measurements, blood was collected for clinical pathology with a focus on hematological measures associated with sickle cell disease.

[5] = tested on: Berkeley sickle cell transgenic mice; experiment: HbF positive and sickled red blood cells in Berkeley sickle cell transgenic mice; assay type: in vivo; details: 30 mg/kg/day Compound P3.1 or 100 mg/kg/day HU, gavage, 30 days
Protocol: This study assessed the effects of chronic dosing (30 day) of Compound P3.1 and HU on HbF and cell sickling in a mouse model of sickle cell disease. Berkeley sickle cell transgenic mice (Hbatm1PazHbbtm1Tow Tg(HBA-HBBs)41Paz/J) were divided into groups of 7 to 8 animals and were dosed once daily, by gavage, for 30 days with either vehicle (PEG:water), 30 mg/kg/day of Compound P3.1, or 100 mg/kg/day of HU. This mouse genotype mimics the genetic, hematologic and histopathologic features that are found in humans afflicted with sickle cell anemia, including irreversibly sickled RBCs, anemia and multi-organ pathology. Blood was collected from treated animals on Day 30 for limited routine hematology as well as derivation of the percent of sickled and HbF positive RBCs and total bilirubin. At termination, the spleen was removed and weighed.

[6] = tested on: CD34+ derived red blood cells from SCD subjects; details: 5 days
[7] = Compound P3.1 30 mg/kg/day, HU 100 mg/kg/day, or both, 10 days

## C[C@@H]1CN(Cc2ncccn2)C[C@H]1c1nc2c(cnn2C2CCOCC2)c(=O)[nH]1 (single isomer, unassigned) [AF27873]
C57Bl/6J mice; 10 mg/kg/day
  conditioned freezing vs vehicle controls: significantly (p<0.05) more conditioned freezing
C57Bl/6J mice; 30 mg/kg/day
  conditioned freezing vs vehicle controls: not observed
PDE1
  IC50: 2.5 µM

## NC(=O)NO [Hydroxyurea, reference compound]
[1]; 1 uM Compound P3.1 or 10 uM HU, whole blood of healthy volunteers
  adhesion of high-binding donor cells: reduced the binding of 2 of 3 of the high binding donors
[1]; 10 uM HU
  toxicity to donor samples: 3 of 9 of the donor samples did not survive HU treatment
[2]; 100 μM
  HbF positive cells: 92.6%
[2]
  effect on HbF-positive cells by concentration: statistically significant increases in HbF-positive cells at concentrations of 10 μM and above (but not at 1 and 3 μM)
[3]
  effect on cGMP levels: dose-dependent and statistically significant increases in cGMP levels
[4]
  platelet binding: did not impact platelet binding
HbSS-Townes mice; 30 mg/kg/day Compound P3.1 or 100 mg/kg HU, drinking water, 10 days, 1 and 4 hours post hypoxia
  microvascular stasis: statistically significant reductions in stasis
HbSS-Townes mice; Compound P3.1 30 mg/kg/day or HU 100 mg/kg/day, 10 days
  total WBC numbers: reduce total WBC numbers
HbSS-Townes mice; Compound P3.1 30 mg/kg/day, HU 100 mg/kg/day, or both
  vessel occlusion induced by transient hypoxia and re-oxygenation: effectively reduced
HbSS-Townes mice; [7]
  number of HbF positive red cells: increase the number of HbF positive red cells
  proportion of sickled RBCs: reduce the proportion of sickled RBCs
[5]
  RBC count, hemoglobin concentration or hematocrit: not associated with any apparent alterations
  neutrophil levels: reduced neutrophil levels
  spleen weight: statistically significant decreases
  total bilirubin: statistically significant decreases
  total leucocyte count: statistically significant decreases
[5]; vs controls
  percentage of HbF positive RBCs: increases in the percentage of HbF positive RBCs
  percentage of sickled RBCs: statistically significant decreases in the percentage of sickled RBCs
[6]; 30 μM HU, remaining 3 subjects
  amount of HbF within cells (mean MFI): 19,383
  mean MFI of HbF relative to controls: 258%
  percentage of HbF positive CD36+ cells (mean): 23.9%
[6]; human, 30 μM
  cell death: greater than 80%
  viability: < 80%
